Data published in US7569724B2, “Carbamic acid compounds comprising an amide linkage as HDAC inhibitors” (Topotarget UK Limited, priority 2000, dated 2009).
Like-named read-outs stand apart in the source and are kept apart here.

Columns and labels:
[1] = system: K11 HPV E7 transformed human keratinocyte line; assay: Secondary assay: cell proliferation WST-1, K11; format: cell-based; conditions: read-out: Cell Proliferation Inhibition WST-1 (IC50 unless otherwise specified) K11
[2] = system: NHEK-Ad primary human adult keratinocyte line; assay: Secondary assay: cell proliferation WST-1, NHEK-Ad; format: cell-based; conditions: 48 h, read-out: Cell Proliferation Inhibition WST-1 (IC50 unless otherwise specified) NHEK-AD
Experimental: Compounds with HDAC inhibition activity, as determined using the primary assay, were subsequently evaluated using secondary cell-based assays. The following cell lines were used:
NHEK-Ad—Primary human adult keratinocyte line (Cambrex Corp., East Rutherford, N.J., USA).
Cells were plated in 96-well plates at 3-10×10^3 cells/well in 100 μL of culture medium. The following day, different concentrations of candidate compounds were added and the cells incubated at 37° C. for 48 h. Subsequently, 10 μL/well of WST-1 reagent was added and the cells reincubated for 1 hour. After the incubation time, absorbance was measured.
WST-1 is a tetrazolium salt which is cleaved to formazan dye by cellular enzymes. An expansion in the number of viable cells results in an increase in the overall activity of mitochondrial dehydrogenases in the sample. This augmentation in the enzyme activity leads to an increase in the amount of formazan dye formed, which directly correlates to the number of metabolically active cells in the culture. The formazan dye produced is quantified by a scanning multiwell spectrophotometer by measuring the absorbance of the dye solution at 450 nm wavelength (reference wavelength 690 nm).
Percent activity (% activity) in reducing the number of viable cells was calculated for each test compound as: % activity={(S^C−B)/(S^o−B)}×100 wherein S^C denotes signal measured in the presence of the compound being tested, S^o denotes signal measured in the absence of the compound being tested, and B denotes the background signal measured in blank wells containing medium only.
IC50 values were calculated using the software package Prism 3.0 (GraphPad software Inc., San Diego, Calif.), setting top value at 100 and bottom value at 0.

[3] = system: JURKAT human T-cell line; assay: Secondary assay: cell proliferation WST-1, Jurkat; format: cell-based; conditions: 48 h, read-out: Cell Proliferation Inhibition WST-1 (IC50 unless otherwise specified) Jurkat
[4] = system: HeLa cells; assay: Secondary assay: cell proliferation WST-1, HeLa; format: cell-based; conditions: Homo sapiens, 48 h, read-out: Cell Proliferation Inhibition WST-1 (IC50 unless otherwise specified) HeLa
In short: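 Absorbance at 450 nm (reference 690 nm); % activity vs untreated after blank subtraction, IC50 fitted with top 100 and bottom 0.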

[5] = biological target: T1, human HDAC1 (Homo sapiens, UniProt Q13547); assay: Primary assay: deacetylase activity, recombinantly produced HDAC1; format: biochemical; conditions: recombinant HDAC1; read-out: HDAC Inhibition (IC50 unless otherwise specified) HDAC1
T1 construct: Full length human HDAC1 was cloned by PCR; Flag (C); His6 (from pAcHLT vector; purified on Ni-NTA) (N); made in house; host or cells: SF9 insect cells (baculovirus)
Excerpt: (§1) Briefly, this assay relies on the release of radioactive acetate from a radioactively labelled histone fragment by the action of HDAC enzyme. Test compounds, which inhibit HDAC, reduce the yield of radioactive acetate. Signal (e.g., scintillation counts) measured in the presence and absence of a test compound provide an indication of that compound's ability to inhibit HDAC activity. Decreased activity indicates increased inhibition by the test compound.
(§2) The histone fragment was an N-terminal sequence from histone H4, and it was labelled with radioactively labelled acetyl groups using tritiated acetylcoenzyme A (coA) in conjunction with an enzyme which is the histone acetyltransferase domain of the transcriptional coactivator p300. […] The acetylated peptide was then separated from free acetyl coA by size exclusion chromatography on Sephadex G-15 (Sigma G-15-120), using distilled H2O as the mobile phase.
(§3) After purification of the radiolabelled histone fragment, it was incubated with a source of HDAC (e.g., an extract of HeLa cells (a rich source of HDAC), recombinantly produced HDAC1 or HDAC2) and any released acetate was extracted into an organic phase and quantitatively determined using scintillation counting. By including a test compound with the source of HDAC, that compound's ability to inhibit the HDAC was determined.
Full length human HDAC1 was cloned by PCR using a λgt11 Jurkat cDNA library (Clontech-HL5012b). The amplified fragment was inserted into the EcoRI-Sall sites of pFlag-CTC vector (Sigma-E5394), in frame with the Flag tag. A second PCR was carried out in order to amplify a fragment containing the HDAC1 sequence fused to the Flag tag.
(§4) Amplification of recombinant viruses was performed according to the Pharmingen Instruction Manual.
(§5) For protein production, 2×10^7 cells were infected with the appropriate recombinant virus for 3 days. Cells were then harvested and spun at 3,000 rpm for 5 minutes. They were then washed twice in PBS and resuspended in 2 pellet volumes of lysis buffer (25 mM HEPES pH 7.9, 0.1 mM EDTA, 400 mM KCl, 10% glycerol, 0.1% NP-40, 1 mM AEBSF). Resuspended cells were frozen on dry ice and thawed at 37° C. 3 times and centrifuged for 10 minutes at 14,000 rpm. […] Incubation was carried out at 4° C. for 1 hour on a rotating wheel. The slurry was then centrifuged at 500 g for 5 minutes. Beads were washed twice in 1 ml of wash buffer (25 mM HEPES pH7.9, 0.1 mM EDTA, 150 mM KCl, 10% glycerol, 0.1% NP-40, 1 mM AEBSF). Protein was eluted 3 times in 300 μl elution buffer (25 mM HEPES pH 7.9, 0.1 mM EDTA, 250 mM KCl, 10% glycerol, 0.1% NP-40, 1 mM AEBSF) containing increasing concentrations of imidazole: 0.2 M, 0.5 M and 1 M. Each elution was performed for 5 minutes at room temperature. Eluted protein was kept in 50% glycerol at −70° C.
(§6) A source of HDAC (e.g., 2 μL of crude HeLa extract, 5 μL of HDAC1 or HDAC2; in elution buffer, as above) was incubated with 3 μL of radioactively labelled peptide along with appropriate dilutions of candidate compounds (1.5 μL) in a total volume of 150 μL of buffer (20 mM Tris pH 7.4, 10% glycerol). The reaction was carried out at 37° C. for one hour, after which the reaction was stopped by adding 20 μL of 1 M HCl/0.4 M sodium acetate. […] Radioactivity was measured using a Tri-Carb 2100TR Liquid Scintillation Analyzer (Packard).
(§7) Percent activity (% activity) for each test compound was calculated as: % activity={(S^C−B)/(S^o−B)}×100 wherein S^C denotes signal measured in the presence of enzyme and the compound being tested, S^o denotes signal measured in the presence of enzyme but in the absence of the compound being tested, and B denotes the background signal measured in the absence of both enzyme and compound being tested.

[6] = biological target: T2, human HDAC2 (Homo sapiens, UniProt Q92769); assay: Primary assay: deacetylase activity, recombinantly produced HDAC2; format: biochemical; conditions: recombinant HDAC2; read-out: HDAC Inhibition (IC50 unless otherwise specified) HDAC2
T2 construct: Full length human HDAC2 was subcloned; Flag (C); His6 (from pAcHLT-A vector; purified on Ni-NTA) (N); made in house; host or cells: SF9 insect cells (baculovirus)
Excerpt: as §1, §2, §3, §4, §5, §6, §7

[7] = system: HDAC (HeLa cell extract); assay: Primary assay: deacetylase activity, HeLa cell extract as source of HDAC; format: biochemical, human
In short: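 Crude HeLa extract (freeze-thaw in 60 mM TrisCl pH 8.0, 450 mM NaCl, 30% glycerol) was incubated 1 h at 37° C with a [³H]acetyl-labelled histone H4 N-terminal peptide in 20 mM Tris pH 7.4, 10% glycerol.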

[8] = Homo sapiens, Keratinocyte, 48 h
[9] = Homo sapiens, Keratinocyte, NHEK-AD
[10] = HeLa cell extract, read-out: HDAC Inhibition (IC50 unless otherwise specified) HeLa

T1 sequence (Q13547 whole entry): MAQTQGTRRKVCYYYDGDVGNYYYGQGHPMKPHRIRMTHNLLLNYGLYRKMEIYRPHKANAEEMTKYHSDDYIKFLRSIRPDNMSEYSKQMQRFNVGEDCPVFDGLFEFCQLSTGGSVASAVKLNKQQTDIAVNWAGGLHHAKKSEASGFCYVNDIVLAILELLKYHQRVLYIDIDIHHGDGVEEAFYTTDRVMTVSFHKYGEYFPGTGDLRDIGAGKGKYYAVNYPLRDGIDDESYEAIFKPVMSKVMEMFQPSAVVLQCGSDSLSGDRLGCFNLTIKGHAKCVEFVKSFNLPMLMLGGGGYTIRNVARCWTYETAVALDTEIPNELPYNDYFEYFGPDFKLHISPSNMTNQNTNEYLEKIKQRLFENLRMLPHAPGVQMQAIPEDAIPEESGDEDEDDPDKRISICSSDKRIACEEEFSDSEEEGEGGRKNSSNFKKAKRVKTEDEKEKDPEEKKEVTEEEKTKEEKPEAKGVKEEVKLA
T2 sequence (Q92769 whole entry): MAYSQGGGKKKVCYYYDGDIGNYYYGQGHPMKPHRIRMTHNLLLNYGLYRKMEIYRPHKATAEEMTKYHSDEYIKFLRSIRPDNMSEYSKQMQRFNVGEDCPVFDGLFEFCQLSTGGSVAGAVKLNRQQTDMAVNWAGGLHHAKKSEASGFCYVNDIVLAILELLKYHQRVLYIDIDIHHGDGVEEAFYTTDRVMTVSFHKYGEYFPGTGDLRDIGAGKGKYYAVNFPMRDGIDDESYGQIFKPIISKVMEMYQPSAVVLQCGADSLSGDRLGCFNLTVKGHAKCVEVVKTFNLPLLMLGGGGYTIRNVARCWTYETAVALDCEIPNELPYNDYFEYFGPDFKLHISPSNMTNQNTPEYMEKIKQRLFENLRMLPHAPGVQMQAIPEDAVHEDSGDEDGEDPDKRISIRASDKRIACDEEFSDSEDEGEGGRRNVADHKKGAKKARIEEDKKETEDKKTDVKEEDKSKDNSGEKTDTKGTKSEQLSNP

Structure (SMILES) | IC50 [1, 8] [nM] | IC50 [4] [nM] | IC50 ([3]; Homo sapiens) [nM] | IC50 [5] [nM] | IC50 [2, 9] [nM] | IC50 [6] [nM] | IC50 [7, 10] [nM] | melting point [°C] | further results
Nc1ccccc1NC(=O)c1ccc(CNC(=O)OCc2cccnc2)cc1 [MS-275, reference compound] | – | – | – | – | – | – | – | – | IC50 ([1]; K11, 48 h): 9160 nM; IC50 ([2]; NHEK-AD): 3100 nM; IC50 [3]: 365 nM
O=C(/C=C/C#Cc1cccc(NS(=O)(=O)c2ccccc2)c1)NO [Oxamflatin, (2E)-5-[3-[(phenylsulfonyl)amino]phenyl]-pent-2-en-4-ynohydroxamic acid, reference compound] | 4560 | 1100 | 260 | – | – | – | – | – | IC50 ([2]; Homo sapiens, Keratinocyte): 3530 nM
O=C(/C=C/C=C/c1ccccc1)NCCCCCC(=O)NO [PX105553, 4-(2E)(4E)-5-Phenyl-penta-2,4-dienoic acid (5-hydroxycarbamoyl-pentyl)-amide] | 7500 | 5700 | 3700 | 38 | 2400 | 47 | 18 | – | –
O=C(/C=C/C=C/c1ccc(-c2ccccc2)cc1)NCCCCCC(=O)NO [PX105848, (2E,4E)-5-Biphenyl-4-yl-penta-2,4-dienoic acid (5-hydroxycarbamoyl-pentyl)-amide] | – | 4300 | – | 25 | – | 56 | 22 | 222 to 224 | IC50 ([7]; comparative tables, HeLa cell extract, read-out: HeLa IC50): 22 nM
O=C(/C=C\C=C\c1ccc(Cl)cc1)NCCCCCC(=O)NO [PX105849, (2Z,4E)-5-(4-Chlorophenyl)penta-2,4-dienoic acid (5-hydroxycarbamoylpentyl)-amide] | – | 5300 | – | 50 | – | 63 | 29 | 158 to 160 | –
O=C(/C=C/C=C/c1ccc(Cl)cc1)NCCCCCC(=O)NO [PX105850, (2E,4E)-5-(4-Chlorophenyl)penta-2,4-dienoic acid (5-hydroxycarbamoylpentyl)-amide] | – | 6300 | – | 25 | – | 75 | 28 | 164 to 168 | –
O=C(/C=C/C=C/c1ccccc1)NCCCCCCCC(=O)NO [PX105851] | – | 4200 | – | 12 | – | 50 | 18 | 160 to 162 | IC50 ([7]; comparative tables, HeLa cell extract, no unit in cell, read-out: HeLa IC50): 18 nM
O=C(/C=C/c1c[nH]c2ccccc12)NCCCCCC(=O)NO [PX116220, N-(5-Hydroxycarbamoyl-pentyl)-3-(1-N-indol-3-yl)-acrylamide] | 9500 | 3700 | 4500 | – | 2400 | – | 6.3 | 92 to 94 | –
O=C(CCCCCCC(=O)Nc1ccc2ccccc2c1)NO [PX116223, Octanedioic acid hydroxyamide naphthalen-2-ylamide] | 1700 | < 310 | 220 | – | 1300 | – | < 12.5 | 142.5 to 144 | –
O=C(/C=C/c1ccc2ccccc2c1)NCCCCCC(=O)NO [PX116232, E-N-(5-Hydroxycarbamoylpentyl)-3-naphthalen-2-yl-acrylamide] | 2700 | 18300 | 7300 | – | 1700 | – | 10 | – | –
O=C(C=C1c2ccccc2-c2ccccc21)NCCCCCC(=O)NO [PX117456, 6-(2-Fluoren-9-ylideneacetylamino)hexanoic acid hydroxyamide] | 740 | 650 | 180 | – | – | – | – | – | IC50 ([2]; Homo sapiens, Keratinocyte): 250 nM; IC50 ([7]; read-out: HDAC Inhibition (IC50 unless otherwise specified) HeLa): 3 nM
CC(/C=C/C(=O)NO)=C\[C@@H](C)C(=O)c1ccc(N(C)C)cc1 [TSA, trichostatin A, reference compound] | 380 | 350 | 42 | – | – | – | – | – | IC50 ([2]; Homo sapiens, Keratinocyte): 200 nM
